Literature values as cited in patent US20020044913A1, “Cosmetics to support skin metabolism” (priority 2000, published 2002).
Like-named read-outs stand apart in the source and are kept apart here.

What was measured:
[1] = system: senescent myocardium (human atrial tissue and rats)
apoptosis = conditions: through its action in the mitochondria
[2] = daily supplements of up to 200 mg for 6-12 months and 100 mg daily for up to 6 y
[3] = system: carnitine-acetyl-carnitine exchange across the inner mitochondrial membrane
[4] = not given; remark: listed apart in the source
skeletal muscle = conditions: older individuals (40-73), 20 g/day, one week
aged rats = conditions: supplementation
oxidant production = conditions: carnitine supplementation

Compound: COC1=C(OC)C(=O)C(C/C=C(\C)CC/C=C(\C)CC/C=C(\C)CC/C=C(\C)CC/C=C(\C)CC/C=C(\C)CC/C=C(\C)CC/C=C(\C)CC/C=C(\C)CCC=C(C)C)=C(C)C1=O [Q10, Coenzyme Q10]
- tolerance of senescent myocardium to aerobic and ischemic stress ([1]; human atrial tissue and rats): improves the tolerance
- recovery of function in older hearts ([1]; older vs younger hearts): corrected the age-specific diminished recovery of function in older hearts
- programmed cell death (apoptosis) (apoptosis): appears to block programmed cell death
- adverse effects [2]: No important adverse effects
- benefit of supplementation (older Finnish men, 100 mg/day): obtained benefit
- clinical improvement (woman deficient in Q10, 150 mg/kg): rapidly improved

Compound: CC(=O)O[C@H](CC(=O)[O-])C[N+](C)(C)C [acetyl-L-carnitine]
- age-associated decrease in mtDNA transcription [3]: reverse
- age-related decrease in cardiolipin [3]: reverse the age-related decrease in cardiolipin
- age-related decrease of carnitine-acetyl-carnitine exchange activity [3]: slow or reverse this age-related dysfunction
- decreased membrane potential [3]: reverse

Compound: CN(CC(=O)O)C(=N)N [creatine]
- safety ([4]; 1.5 g-25 g/day for period of at least a year): safe
- adverse effects ([4]; athletes, doses up to 75 grams a day for years): without known adverse effects, aside from weight gain
- skeletal muscle strength and endurance (skeletal muscle): Increased skeletal muscle strength and endurance

Compound: C[N+](C)(C)C[C@H](O)CC(=O)[O-] [L-carnitine]
- age-associated decrease in mtDNA transcription [3]: reverse
- age-related decrease in cardiolipin [3]: reverse the age-related decrease in cardiolipin
- age-related decrease of carnitine-acetyl-carnitine exchange activity [3]: slow or reverse this age-related dysfunction
- decreased membrane potential [3]: reverse

Compound: O=C(O)CCCC[C@@H]1CCSS1 [R-α-lipoic acid]
- age-related decline in mitochondrial membrane potential (aged rats): restore the age-related decline in mitochondrial membrane potential
- age-related decrease in oxygen consumption (aged rats): reverse the age-related decrease in oxygen consumption
- age-related increase in oxidants (aged rats): significantly lower
- glutathione and ascorbic acid levels (aged rats): restore glutathione and ascorbic acid levels to youthful levels
- ambulatory activity of aged rats (aged rats; aged rats): triple

Compound: C[N+](C)(C)CC(O)CC(=O)[O-] (stereo not shown) [carnitine]
- cell antioxidants (oxidant production): decreased cell antioxidants markedly
- increase in oxidant production (oxidant production): 30%

Compound: COc1c(O)c(C)c(C/C=C(\C)CC/C=C(\C)CC/C=C(\C)CC/C=C(\C)CC/C=C(\C)CC/C=C(\C)CC/C=C(\C)CC/C=C(\C)CC/C=C(\C)CCC=C(C)C)c(O)c1OC [ubiquinol-10]
- oxidative damage to DNA (human lymphocytes): appears to protect human lymphocytes from oxidative damage to DNA
